pIC50: −log10 of the molar value. Activity calls are given as the source filed them. No cut-off for these calls is given here.

The test system of one data set is MCF7. In words: Cytotoxicity against human MCF7 cells assessed as cell growth inhibition at 50 uM incubated for 48 hrs by CCK-8 assay.
Settings: not given
The data set is classed as functional, cell-based.
On to `C=C(C)[C@H]1CC[C@]2(C)[C@@]3(O)CC(=O)C(C)=CC[C@]3(C)C(=O)C[C@@]12O`, for which the outcome was inactive.
Take `C=C(C)[C@H]1CC[C@@]23CO[C@@](O)(C[C@@]12O)[C@@]1(C)C[C@H]2O[C@]13[C@@H](O)C(=O)[C@H]2C`: the result was inactive.
Still for that read-out and setting: the result for `C=C(C)[C@H]1CC[C@]2(C)[C@@]34CC(=O)[C@@H](C)[C@@H](C[C@]3(C)C(=O)C[C@@]12O)O4` reads “inactive”; that for `C=C(CO)[C@H]1CC[C@]2(C)[C@@]34CC(=O)[C@@H](C)[C@@H](C[C@]3(C)C(=O)C[C@@]12O)O4`, “inactive”; that for `C=C(C)[C@H]1CC[C@@]23CO[C@@]4(O)C(=O)C(C)=CC[C@](C)(C(=O)C[C@@]12O)[C@@]34O`, “inactive”.

The test system of a further data set is Staphylococcus aureus. In words: Antimicrobial activity against Staphylococcus aureus ATCC25923 assessed as inhibition of microbial growth at 50 uM incubated for 24 hrs by microbroth dilution assay. The data set is classed as functional, organism-based.
Settings: not given
A general note: Dilution methods test growth across graded concentrations, often in twofold steps.
As for `C=C(C)[C@H]1CC[C@]2(C)[C@@]3(O)CC(=O)C(C)=CC[C@]3(C)C(=O)C[C@@]12O`, the outcome was inactive.
With `C=C(C)[C@H]1CC[C@@]23CO[C@@](O)(C[C@@]12O)[C@@]1(C)C[C@H]2O[C@]13[C@@H](O)C(=O)[C@H]2C`, the result was inactive.
Still for that read-out and setting: the result for `C=C(C)[C@H]1CC[C@]2(C)[C@@]34CC(=O)[C@@H](C)[C@@H](C[C@]3(C)C(=O)C[C@@]12O)O4` reads “inactive”; that for `C=C(CO)[C@H]1CC[C@]2(C)[C@@]34CC(=O)[C@@H](C)[C@@H](C[C@]3(C)C(=O)C[C@@]12O)O4`, “inactive”.
Same read-out and setting: the result for `C=C(C)[C@H]1CC[C@@]23CO[C@@]4(O)C(=O)C(C)=CC[C@](C)(C(=O)C[C@@]12O)[C@@]34O` reads “inactive”.

System in a further data set: not listed separately
In words: Cytotoxicity against male BALB/c mouse Splenocyte cells incubated for 48 hrs by CCK-8 assay. In kind it is toxicity, cell-based. The conditions noted are these: splenocytes.
By CC50 is commonly meant the concentration that lowers cell viability or growth by half. Low values mean greater toxicity to the cells, high ones lower toxicity to the cells. `C=C(CO)[C@H]1CC[C@]2(C)[C@@]34CC(=O)[C@@H](C)[C@@H](C[C@]3(C)C(=O)C[C@@]12O)O4` came in with a CC50 at 48 h greater than 50 µM.

For another data set, the system named is A549. In words: Cytotoxicity against human A549 cells assessed as cell growth inhibition at 50 uM incubated for 48 hrs by CCK-8 assay. The data set is classed as functional, cell-based.
Settings: not given
In general terms: Tetrazolium dyes change colour on reduction, which living cells bring about.
As to `C=C(C)[C@H]1CC[C@]2(C)[C@@]3(O)CC(=O)C(C)=CC[C@]3(C)C(=O)C[C@@]12O`, the outcome was inactive.
Same read-out and setting: to `C=C(C)[C@H]1CC[C@@]23CO[C@@](O)(C[C@@]12O)[C@@]1(C)C[C@H]2O[C@]13[C@@H](O)C(=O)[C@H]2C` belongs “inactive”; to `C=C(C)[C@H]1CC[C@]2(C)[C@@]34CC(=O)[C@@H](C)[C@@H](C[C@]3(C)C(=O)C[C@@]12O)O4`, “inactive”.
Still for that read-out and setting: the result for `C=C(CO)[C@H]1CC[C@]2(C)[C@@]34CC(=O)[C@@H](C)[C@@H](C[C@]3(C)C(=O)C[C@@]12O)O4` reads “inactive”.
Same read-out and setting: the result for `C=C(C)[C@H]1CC[C@@]23CO[C@@]4(O)C(=O)C(C)=CC[C@](C)(C(=O)C[C@@]12O)[C@@]34O` reads “inactive”.

In another data set the test system is Escherichia coli. In words: Antimicrobial activity against Escherichia coli ATCC35218 assessed as inhibition of microbial growth at 50 uM incubated for 24 hrs by microbroth dilution assay. In kind it is functional, organism-based.
Settings: not given
Take `C=C(C)[C@H]1CC[C@]2(C)[C@@]3(O)CC(=O)C(C)=CC[C@]3(C)C(=O)C[C@@]12O`: the outcome was inactive.
The same measure, in the same setting: to `C=C(C)[C@H]1CC[C@@]23CO[C@@](O)(C[C@@]12O)[C@@]1(C)C[C@H]2O[C@]13[C@@H](O)C(=O)[C@H]2C` belongs “inactive”; to `C=C(C)[C@H]1CC[C@]2(C)[C@@]34CC(=O)[C@@H](C)[C@@H](C[C@]3(C)C(=O)C[C@@]12O)O4`, “inactive”; to `C=C(CO)[C@H]1CC[C@]2(C)[C@@]34CC(=O)[C@@H](C)[C@@H](C[C@]3(C)C(=O)C[C@@]12O)O4`, “inactive”.
Regarding `C=C(C)[C@H]1CC[C@@]23CO[C@@]4(O)C(=O)C(C)=CC[C@](C)(C(=O)C[C@@]12O)[C@@]34O`, the outcome was inactive.

Another data set concerns HepG2. Put plainly: Cytotoxicity against human HepG2 cells assessed as cell growth inhibition at 50 uM incubated for 48 hrs by CCK-8 assay. In kind it is functional, cell-based.
Settings: not given
`C=C(C)[C@H]1CC[C@]2(C)[C@@]3(O)CC(=O)C(C)=CC[C@]3(C)C(=O)C[C@@]12O`: the result was inactive.
Same read-out and setting: the result for `C=C(C)[C@H]1CC[C@@]23CO[C@@](O)(C[C@@]12O)[C@@]1(C)C[C@H]2O[C@]13[C@@H](O)C(=O)[C@H]2C` reads “inactive”.
On the same count and under the same terms, to `C=C(C)[C@H]1CC[C@]2(C)[C@@]34CC(=O)[C@@H](C)[C@@H](C[C@]3(C)C(=O)C[C@@]12O)O4` belongs “inactive”; to `C=C(CO)[C@H]1CC[C@]2(C)[C@@]34CC(=O)[C@@H](C)[C@@H](C[C@]3(C)C(=O)C[C@@]12O)O4`, “inactive”.
Take `C=C(C)[C@H]1CC[C@@]23CO[C@@]4(O)C(=O)C(C)=CC[C@](C)(C(=O)C[C@@]12O)[C@@]34O`: the result was inactive.

System in another data set: not listed separately
Put plainly: Selectivity index, ratio of CC50 for cytotoxicity against male BALB/c mouse Splenocyte cells to IC50 for immunosuppressive activity in male BALB/c mouse splenocyte assessed as reduction in LPS-induced B-cell proliferation. In kind it is toxicity, cell-based. The conditions noted are these: splenocytes, read-out: Ratio CC50/IC50.
In the case of `C=C(CO)[C@H]1CC[C@]2(C)[C@@]34CC(=O)[C@@H](C)[C@@H](C[C@]3(C)C(=O)C[C@@]12O)O4`, the selectivity ratio was greater than 17.

Another data set relates to Splenocyte. In words: Immunosuppressive activity in male BALB/c mouse splenocyte assessed as reduction in ConA-induced T-cell proliferation incubated for 48 hrs by CCK-8 assay. The data set is classed as functional, cell-based.
Settings: not given
Broadly, the pIC50 is the negative decadic logarithm of the IC50, by convention in mol/L. In the case of `C=C(CO)[C@H]1CC[C@]2(C)[C@@]34CC(=O)[C@@H](C)[C@@H](C[C@]3(C)C(=O)C[C@@]12O)O4`, the pIC50 was 4.72.

A further data set has as its system HT-29. In words: Cytotoxicity against human HT-29 cells assessed as cell growth inhibition at 50 uM incubated for 48 hrs by CCK-8 assay. In kind it is functional, cell-based.
Settings: not given
On to `C=C(C)[C@H]1CC[C@]2(C)[C@@]3(O)CC(=O)C(C)=CC[C@]3(C)C(=O)C[C@@]12O`, for which the outcome was inactive.
Same read-out and setting: the result for `C=C(C)[C@H]1CC[C@@]23CO[C@@](O)(C[C@@]12O)[C@@]1(C)C[C@H]2O[C@]13[C@@H](O)C(=O)[C@H]2C` reads “inactive”; that for `C=C(C)[C@H]1CC[C@]2(C)[C@@]34CC(=O)[C@@H](C)[C@@H](C[C@]3(C)C(=O)C[C@@]12O)O4`, “inactive”.
Regarding `C=C(CO)[C@H]1CC[C@]2(C)[C@@]34CC(=O)[C@@H](C)[C@@H](C[C@]3(C)C(=O)C[C@@]12O)O4`, the result was inactive.
Same read-out and setting: to `C=C(C)[C@H]1CC[C@@]23CO[C@@]4(O)C(=O)C(C)=CC[C@](C)(C(=O)C[C@@]12O)[C@@]34O` belongs “inactive”.

The next data set concerns Splenocyte. Put plainly: Immunosuppressive activity in male BALB/c mouse splenocyte assessed as reduction in LPS-induced B-cell proliferation incubated for 48 hrs by CCK-8 assay.
Settings: not given
The data set is classed as functional, cell-based.
Consider `C=C(CO)[C@H]1CC[C@]2(C)[C@@]34CC(=O)[C@@H](C)[C@@H](C[C@]3(C)C(=O)C[C@@]12O)O4`, for which the pIC50 was 5.52.

Another data set concerns HeLa. Put plainly: Cytotoxicity against human HeLa cells assessed as cell growth inhibition at 50 uM incubated for 48 hrs by CCK-8 assay. The data set is classed as functional, cell-based.
Settings: not given
With `C=C(C)[C@H]1CC[C@]2(C)[C@@]3(O)CC(=O)C(C)=CC[C@]3(C)C(=O)C[C@@]12O`, the outcome was inactive.
Same read-out and setting: to `C=C(C)[C@H]1CC[C@@]23CO[C@@](O)(C[C@@]12O)[C@@]1(C)C[C@H]2O[C@]13[C@@H](O)C(=O)[C@H]2C` belongs “inactive”; to `C=C(C)[C@H]1CC[C@]2(C)[C@@]34CC(=O)[C@@H](C)[C@@H](C[C@]3(C)C(=O)C[C@@]12O)O4`, “inactive”; to `C=C(CO)[C@H]1CC[C@]2(C)[C@@]34CC(=O)[C@@H](C)[C@@H](C[C@]3(C)C(=O)C[C@@]12O)O4`, “inactive”.
For `C=C(C)[C@H]1CC[C@@]23CO[C@@]4(O)C(=O)C(C)=CC[C@](C)(C(=O)C[C@@]12O)[C@@]34O`, the outcome was inactive.

System in the next data set: not listed separately
In words: Selectivity index, ratio of CC50 for cytotoxicity against male BALB/c mouse Splenocyte cells to IC50 for immunosuppressive activity in male BALB/c mouse splenocyte assessed as reduction in ConA-induced T-cell proliferation. The conditions noted are these: splenocytes, read-out: Ratio CC50/IC50. The data set is classed as toxicity, cell-based.
Turning to `C=C(CO)[C@H]1CC[C@]2(C)[C@@]34CC(=O)[C@@H](C)[C@@H](C[C@]3(C)C(=O)C[C@@]12O)O4`, the selectivity ratio was greater than 2.6.
